# According to patent US20240000872A1, “NOVEL BACTERIOPHAGE THAT LYSES ACINETOBACTER GENUS BACTERIA HAVING RESISTANCE TO ANTIBIOTICS” (priority 2020, published 2024):
# System: Acinetobacter baumannii strains
# Assay: Antibiotic susceptibility test (CLSI disk diffusion test method, read per CLSI 2016)
# Format: cell-based
# Experimental: Strain identification was performed using a kit such as AT 32 GN system (bioMérieux, Marcy l'Etoile, France). […] In Table 2 below, S, I, and R are the results obtained by evaluating susceptibility to the antibacterial agents, in which ‘S’ means susceptible, ‘I’ means intermediate, and ‘R’ means resistant.
# Strain identification was performed using a kit such as ATB 32 GN system (bioMédrieux, Marcy l'Etoile, France). […] In Table 6 below, S, I, and R are the results obtained by evaluating susceptibility to the antibacterial agents, in which ‘S’ means susceptible, ‘I’ means intermediate, and ‘R’ means resistant.
# Strain identification was performed using a kit such as ATB 32 GN system (bioMérieux, Marcy l'Etoile, France). […] In Table 10 below, S, I, and R are the results obtained by evaluating susceptibility to the antibacterial agents, in which ‘S’ means susceptible, T means intermediate, and ‘R’ means resistant.
structure (smiles),measurement,setting,value
"C[C@@H](O)[C@H]1C(=O)N2C(C(=O)O)=C(S[C@@H]3CN[C@H](C(=O)N(C)C)C3)[C@H](C)[C@H]12 [Meropenem, meropenem]",antibiotic susceptibility class,host strain YMC14/01/C29,R
same,antibiotic susceptibility class,host strain YMC14/01/IP122,R
same,antibiotic susceptibility class,host strain YMC14/01/L8,R
same,antibiotic susceptibility class,host strain YMC14/01/P31,R
same,antibiotic susceptibility class,host strain YMC14/01/P117,R
same,antibiotic susceptibility class,host strain YMC14/01/P224,R
same,antibiotic susceptibility class,host strain YMC14/01/P727,R
same,antibiotic susceptibility class,host strain YMC14/01/P728,R
same,antibiotic susceptibility class,host strain YMC14/01/R130,R
same,antibiotic susceptibility class,host strain YMC14/01/R160,R
same,antibiotic susceptibility class,host strain YMC14/01/R198,R
same,antibiotic susceptibility class,host strain YMC14/01/R257,R
same,antibiotic susceptibility class,host strain YMC14/01/R270,R
same,antibiotic susceptibility class,host strain YMC14/01/R324,R
same,antibiotic susceptibility class,host strain YMC14/01/R443,R
same,antibiotic susceptibility class,host strain YMC14/01/R451,R
same,antibiotic susceptibility class,host strain YMC14/01/R560,R
same,antibiotic susceptibility class,host strain YMC14/01/R617,R
same,antibiotic susceptibility class,host strain YMC14/01/R671,R
same,antibiotic susceptibility class,host strain YMC14/01/R732,R
same,antibiotic susceptibility class,host strain YMC14/01/R767,R
same,antibiotic susceptibility class,host strain YMC14/01/R904,R
same,antibiotic susceptibility class,host strain YMC14/01/R905,R
same,antibiotic susceptibility class,host strain YMC14/01/R921,R
same,antibiotic susceptibility class,host strain YMC14/01/R941,R
same,antibiotic susceptibility class,host strain YMC14/01/R958,R
same,antibiotic susceptibility class,host strain YMC14/01/R1006,R
same,antibiotic susceptibility class,host strain YMC14/01/R1199,R
same,antibiotic susceptibility class,host strain YMC14/01/R1659,R
same,antibiotic susceptibility class,host strain YMC14/01/R1722,R
same,antibiotic susceptibility class,host strain YMC14/01/R1752,R
same,antibiotic susceptibility class,host strain YMC14/01/R2429,R
same,antibiotic susceptibility class,host strain YMC14/01/R2572,R
same,antibiotic susceptibility class,host strain YMC14/01/R2855,R
same,antibiotic susceptibility class,host strain YMC14/01/R2945,R
same,antibiotic susceptibility class,host strain YMC14/01/R3007,R
same,antibiotic susceptibility class,host strain YMC14/01/R3129,R
same,antibiotic susceptibility class,host strain YMC14/01/R3317,R
same,antibiotic susceptibility class,host strain YMC14/01/R3474,R
same,antibiotic susceptibility class,host strain YMC14/01/R3574,R
same,antibiotic susceptibility class,host strain YMC14/01/U313,R
same,antibiotic susceptibility class,host strain YMC14/01/U318,R
same,antibiotic susceptibility class,host strain YMC14/02/L18,R
same,antibiotic susceptibility class,host strain YMC14/02/P47,R
same,antibiotic susceptibility class,host strain YMC14/02/R1860,R
same,antibiotic susceptibility class,host strain YMC14/02/R2417,R
same,antibiotic susceptibility class,host strain YMC14/02/R2599,R
same,antibiotic susceptibility class,host strain YMC14/02/R2668,R
same,antibiotic susceptibility class,host strain YMC14/02/R2758,R
same,antibiotic susceptibility class,host strain YMC14/02/R2781,R
same,antibiotic susceptibility class,host strain YMC14/02/R3106,R
same,antibiotic susceptibility class,host strain YMC14/02/R3419,R
same,antibiotic susceptibility class,host strain YMC14/02/U1607,R
same,antibiotic susceptibility class,host strain YMC14/03/L9,R
same,antibiotic susceptibility class,host strain YMC14/03/P471,R
same,antibiotic susceptibility class,host strain YMC14/03/R122,R
same,antibiotic susceptibility class,host strain YMC14/03/R217,R
same,antibiotic susceptibility class,host strain YMC14/03/R380,R
same,antibiotic susceptibility class,host strain YMC14/03/R618,R
same,antibiotic susceptibility class,host strain YMC14/03/R2144,R
same,antibiotic susceptibility class,host strain YMC14/03/U4616,R
same,antibiotic susceptibility class,host strain YMC14/04/R1078,R
same,antibiotic susceptibility class,host strain YMC14/04/R1080,R
same,antibiotic susceptibility S/I/R,host strain YMC14/06/R2359,R
same,susceptibility category (S/I/R),host strain YMC14/06/R2359,R
same,antibiotic susceptibility S/I/R,host strain YMC14/08/R1169,R
same,susceptibility category (S/I/R),host strain YMC14/08/R1169,R
same,antibiotic susceptibility S/I/R,host strain YMC14/08/T90,R
same,susceptibility category (S/I/R),host strain YMC14/08/T90,R
same,antibiotic susceptibility S/I/R,host strain YMC15/02/R436,R
same,susceptibility category (S/I/R),host strain YMC15/02/R436,R
same,antibiotic susceptibility S/I/R,host strain YMC15/02/T28,R
same,susceptibility category (S/I/R),host strain YMC15/02/T28,R
same,antibiotic susceptibility S/I/R,host strain YMC15/03/R1604,R
same,susceptibility category (S/I/R),host strain YMC15/03/R1604,R
same,antibiotic susceptibility S/I/R,host strain YMC15/09/R1869,R
same,susceptibility category (S/I/R),host strain YMC15/09/R1869,R
same,antibiotic susceptibility S/I/R,host strain YMC16/01/P11,R
same,susceptibility category (S/I/R),host strain YMC16/01/P11,R
same,antibiotic susceptibility S/I/R,host strain YMC16/01/R123,R
same,susceptibility category (S/I/R),host strain YMC16/01/R123,R
same,antibiotic susceptibility S/I/R,host strain YMC16/01/R198,R
same,susceptibility category (S/I/R),host strain YMC16/01/R198,R
same,antibiotic susceptibility S/I/R,host strain YMC16/01/R353,R
same,susceptibility category (S/I/R),host strain YMC16/01/R353,R
same,antibiotic susceptibility S/I/R,host strain YMC16/01/R380,R
same,susceptibility category (S/I/R),host strain YMC16/01/R380,R
same,antibiotic susceptibility S/I/R,host strain YMC16/01/R397,R
same,susceptibility category (S/I/R),host strain YMC16/01/R397,R
same,antibiotic susceptibility S/I/R,host strain YMC16/01/R405,R
same,susceptibility category (S/I/R),host strain YMC16/01/R405,R
same,antibiotic susceptibility S/I/R,host strain YMC16/03/R4461,R
same,susceptibility category (S/I/R),host strain YMC16/03/R4461,R
same,antibiotic susceptibility S/I/R,host strain YMC16/05/R2210,R
same,susceptibility category (S/I/R),host strain YMC16/05/R2210,R
same,antibiotic susceptibility S/I/R,host strain YMC16/07/R2512,R
same,susceptibility category (S/I/R),host strain YMC16/07/R2512,R
same,antibiotic susceptibility S/I/R,host strain YMC16/09/R2471,R
same,susceptibility category (S/I/R),host strain YMC16/09/R2471,R
same,antibiotic susceptibility S/I/R,host strain YMC16/10/R2537,R
same,susceptibility category (S/I/R),host strain YMC16/10/R2537,R
same,antibiotic susceptibility S/I/R,host strain YMC16/12/B11422,R
same,susceptibility category (S/I/R),host strain YMC16/12/B11422,R
same,antibiotic susceptibility S/I/R,host strain YMC16/12/B11449,R
same,susceptibility category (S/I/R),host strain YMC16/12/B11449,R
same,antibiotic susceptibility S/I/R,host strain YMC16/12/B13325,R
same,susceptibility category (S/I/R),host strain YMC16/12/B13325,R
same,antibiotic susceptibility S/I/R,host strain YMC16/12/P503,R
same,susceptibility category (S/I/R),host strain YMC16/12/P503,R
same,antibiotic susceptibility S/I/R,host strain YMC16/12/R4637,R
same,susceptibility category (S/I/R),host strain YMC16/12/R4637,R
same,antibiotic susceptibility S/I/R,host strain YMC17/01/B8053,R
same,susceptibility category (S/I/R),host strain YMC17/01/B8053,R
same,antibiotic susceptibility S/I/R,host strain YMC17/01/B10087,R
same,susceptibility category (S/I/R),host strain YMC17/01/B10087,R
same,antibiotic susceptibility S/I/R,host strain YMC17/01/B12075,R
same,susceptibility category (S/I/R),host strain YMC17/01/B12075,R
same,antibiotic susceptibility S/I/R,host strain YMC17/01/B13454,R
same,susceptibility category (S/I/R),host strain YMC17/01/B13454,R
same,antibiotic susceptibility S/I/R,host strain YMC17/01/P518,R
same,susceptibility category (S/I/R),host strain YMC17/01/P518,R
same,antibiotic susceptibility S/I/R,host strain YMC17/01/R2812,R
same,susceptibility category (S/I/R),host strain YMC17/01/R2812,R
same,antibiotic susceptibility S/I/R,host strain YMC17/02/B14,R
same,susceptibility category (S/I/R),host strain YMC17/02/B14,R
same,antibiotic susceptibility S/I/R,host strain YMC17/02/B87,R
same,susceptibility category (S/I/R),host strain YMC17/02/B87,R
same,antibiotic susceptibility S/I/R,host strain YMC17/02/B721,R
same,susceptibility category (S/I/R),host strain YMC17/02/B721,R
same,antibiotic susceptibility S/I/R,host strain YMC17/02/B4039,R
same,susceptibility category (S/I/R),host strain YMC17/02/B4039,R
same,antibiotic susceptibility S/I/R,host strain YMC17/02/B4520,R
same,susceptibility category (S/I/R),host strain YMC17/02/B4520,R
same,antibiotic susceptibility S/I/R,host strain YMC17/02/B4864,S
same,susceptibility category (S/I/R),host strain YMC17/02/B4864,S
same,antibiotic susceptibility S/I/R,host strain YMC17/02/B8414,R
same,susceptibility category (S/I/R),host strain YMC17/02/B8414,R
same,antibiotic susceptibility S/I/R,host strain YMC17/02/P523,R
same,susceptibility category (S/I/R),host strain YMC17/02/P523,R
same,antibiotic susceptibility S/I/R,host strain YMC17/02/R541,R
same,susceptibility category (S/I/R),host strain YMC17/02/R541,R
same,antibiotic susceptibility S/I/R,host strain YMC17/02/R2392,R
same,susceptibility category (S/I/R),host strain YMC17/02/R2392,R
same,antibiotic susceptibility S/I/R,host strain YMC17/03/B4730,R
same,susceptibility category (S/I/R),host strain YMC17/03/B4730,R
same,antibiotic susceptibility S/I/R,host strain YMC17/03/B5000,R
same,susceptibility category (S/I/R),host strain YMC17/03/B5000,R
same,antibiotic susceptibility S/I/R,host strain YMC17/03/P971,R
same,susceptibility category (S/I/R),host strain YMC17/03/P971,R
same,antibiotic susceptibility S/I/R,host strain YMC17/03/R348,R
same,susceptibility category (S/I/R),host strain YMC17/03/R348,R
same,antibiotic susceptibility S/I/R,host strain YMC17/03/R585,R
same,susceptibility category (S/I/R),host strain YMC17/03/R585,R
same,antibiotic susceptibility S/I/R,host strain YMC17/03/R1888,R
same,susceptibility category (S/I/R),host strain YMC17/03/R1888,R
same,antibiotic susceptibility S/I/R,host strain YMC17/03/R3279,R
same,susceptibility category (S/I/R),host strain YMC17/03/R3279,R
same,antibiotic susceptibility S/I/R,host strain YMC17/03/R4077,R
same,susceptibility category (S/I/R),host strain YMC17/03/R4077,R
same,antibiotic susceptibility S/I/R,host strain YMC17/03/R4607,R
same,susceptibility category (S/I/R),host strain YMC17/03/R4607,R
same,antibiotic susceptibility S/I/R,host strain YMC17/04/R488,R
same,susceptibility category (S/I/R),host strain YMC17/04/R488,R
same,antibiotic susceptibility S/I/R,host strain YMC17/04/R640,R
same,susceptibility category (S/I/R),host strain YMC17/04/R640,R
same,antibiotic susceptibility S/I/R,host strain YMC/17/05/R1095,R
same,susceptibility category (S/I/R),host strain YMC/17/05/R1095,R
